In US20260241012A1, “1,8-NAPHTHYRIDIN-2-ONE HETEROBIFUNCTIONAL BCL6 DEGRADERS” (Treeline Biosciences, Inc., priority 2022, published 2026):

Target: T1, N-terminal HiBiT tagged BCL6 (Homo sapiens, UniProt P41182)
T1 construct: expressed in transfected cells; host or cells: HT1080 (ATCC CCL-121), stably transduced with lentivirus pLV-UBC-N-HiBiT-BCL6-PGK-puro
Assay: HiBiT based degradation assay
Format: cell-based
Settings: HT1080 cells expressing N-terminal HiBiT tagged BCL6, 5 hours of incubation; for Ymin (5 hr): BCL6 degradation normalized with DMSO control; for DC50: four-parameter logistic model, read-out: EC50 (5 hr)
Source text: Human BCL6 protein coding open reading frame fused with N-terminal HiBiT coding sequence was synthesized from Integrated DNA Technologies (IDT). Next, the N-HiBiT-BCL6 sequence was cloned into pLV-UBC-PGK-Puro, a lentivirus plasmid purchased from Vectorbuilder, to generate pLV-UBC-N-HiBiT-BCL6-PGK-puro. Lentiviral particles were generated from Lenti-X™ 293T cells (Clontech) by co-transfection of pLV-UBC-N-HiBiT-BCL6-PGK-puro plasmids and lentiviral packaging plasmid mix (Cellecta). HT1080 [HT1080] (ATCC CCL-121) cells were infected with the lentivirus, and HT1080 cells stably integrated with the lentiviral vectors were established by incubation with 1 μg/mL puromycin (Thermofisher).
HT1080 cells expressing N-terminal HiBiT tagged BCL6 were dispensed into a 384-well plate pre-spotted with compounds at varying concentrations. Five thousand cells were seeded into each well in 40 μL of RPMI 1640 media plus 10% Fetal Bovine Serum (10082-147, Thermofisher). After 5 hours of incubation at 37° C. with 5% CO2, 30 μL of the NANO-GLOR HiBiT Lytic Detection System working solution (Promega) was added to each well and incubated at room temperature for 15 min. After incubation, luminescence was read on a PHERAstar FSX Plate Reader (BMG). BCL6 degradation at each indicated concentration was normalized with DMSO control. The BCL6 degradation curves were plotted using a four-parameter logistic model.

Ymin (5 hr) | DC50 | Compound
++++ (Ymin < 30%) | 10 to 100 nM | CNC(=O)COc1cc2cc(Nc3nc(N4CC[C@H](CN5CCN(c6cccc7c(C8CCC(=O)NC8=O)nn(C)c67)CC5)[C@@H](F)C4)ncc3Cl)cnc2n(C(C)C)c1=O (relative stereo) [Compound 238b, 2-((6-((5-chloro-2-((3R,4R)-4-((4-(3-(2,6-dioxopiperidin-3-yl)-1-methyl-1H-indazol-7-yl)piperazin-1-yl)methyl)-3-fluoropiperidin-1-yl)pyrimidin-4-yl)amino)-1-isopropyl-2-oxo-1,2-dihydro-1,8-naphthyridin-3-yl)oxy)-N-methylacetamide]
++++ (Ymin < 30%) | < 10 nM | CNC(=O)COc1cc2cc(Nc3nc(N4CC[C@H](CN5CCC(c6ccc7c(C8CCC(=O)NC8=O)nn(C)c7c6)CC5)[C@H](F)C4)ncc3Cl)cnc2n(C(C)C)c1=O (relative stereo) [Compound 242a, 2-((6-((5-chloro-2-((3S,4R)-4-((4-(3-(2,6-dioxopiperidin-3-yl)-1-methyl-1H-indazol-6-yl)piperidin-1-yl)methyl)-3-fluoropiperidin-1-yl)pyrimidin-4-yl)amino)-1-isopropyl-2-oxo-1,2-dihydro-1,8-naphthyridin-3-yl)oxy)-N-methylacetamide]
++++ (Ymin < 30%) | < 10 nM | CNC(=O)COc1cc2cc(Nc3nc(N4CC[C@@H](CN5CCC(c6ccc7c(C8CCC(=O)NC8=O)nn(C)c7c6)CC5)[C@@H](F)C4)ncc3Cl)cnc2n(C(C)C)c1=O (relative stereo) [Compound 242b, 2-((6-((5-chloro-2-((3R,4S)-4-((4-(3-(2,6-dioxopiperidin-3-yl)-1-methyl-1H-indazol-6-yl)piperidin-1-yl)methyl)-3-fluoropiperidin-1-yl)pyrimidin-4-yl)amino)-1-isopropyl-2-oxo-1,2-dihydro-1,8-naphthyridin-3-yl)oxy)-N-methylacetamide]
++++ (Ymin < 30%) | < 10 nM | CNC(=O)COc1cc2cc(Nc3nc(N4CC5(CC[C@H](Nc6ccc7c(C8CCC(=O)NC8=O)nn(C)c7c6)[C@@H](C)C5)C4)ncc3Cl)cnc2n(C)c1=O (single isomer, unassigned) [Compound 156a]
++++ (Ymin < 30%) | < 10 nM | CNC(=O)COc1cc2cc(Nc3nc(N4CC5(CC[C@@H](Nc6ccc7c(C8CCC(=O)NC8=O)nn(C)c7c6)[C@@H](C)C5)C4)ncc3Cl)cnc2n(C)c1=O (single isomer, unassigned) [Compound 156c]
++++ (Ymin < 30%) | < 10 nM | CNC(=O)COc1cc2cc(Nc3nc(N4CC5(CC[C@H](Oc6ccc7c(C8CCC(=O)NC8=O)nn(C)c7c6)[C@H](C)C5)C4)ncc3Cl)cnc2n(C(C)C)c1=O (single isomer, unassigned) [Compound 185a]
+++ (30% ≤ Ymin < 50%) | 10 to 100 nM | CNC(=O)COc1cc2cc(Nc3nc(N4CCC([C@@H](C)N5CCN(c6cccc7c(C8CCC(=O)NC8=O)nn(C)c67)CC5)CC4)ncc3Cl)cnc2n(C(C)C)c1=O (single isomer, unassigned) [Compound 193a]
++++ (Ymin < 30%) | 10 to 100 nM | CNC(=O)COc1cc2cc(Nc3nc(N4CCC([C@H](C)N5CCN(c6cccc7c(C8CCC(=O)NC8=O)nn(C)c67)CC5)CC4)ncc3Cl)cnc2n(C(C)C)c1=O (single isomer, unassigned) [Compound 193b]
++++ (Ymin < 30%) | 10 to 100 nM | CNC(=O)COc1cc2cc(Nc3nc(N4CCC([C@@](C)(O)C5CCN(c6cccc7c(C8CCC(=O)NC8=O)nn(C)c67)CC5)CC4)ncc3Cl)cnc2n(C(C)C)c1=O (single isomer, unassigned) [Compound 194a]
++++ (Ymin < 30%) | 10 to 100 nM | CNC(=O)COc1cc2cc(Nc3nc(N4CCN([C@@H](C)C5CCN(c6cccc7c(C8CCC(=O)NC8=O)nn(C)c67)CC5)CC4)ncc3Cl)cnc2n(C(C)C)c1=O (single isomer, unassigned) [Compound 195a]
+++ (30% ≤ Ymin < 50%) | 10 to 100 nM | CNC(=O)COc1cc2cc(Nc3nc(N4CCN([C@H](C)C5CCN(c6cccc7c(C8CCC(=O)NC8=O)nn(C)c67)CC5)CC4)ncc3Cl)cnc2n(C(C)C)c1=O (single isomer, unassigned) [Compound 195b]
++ (50% ≤ Ymin < 70%) | < 10 nM | CNC(=O)COc1cc2cc(Nc3nc(N4CCC([C@@](C)(O)C5CCN(c6ccc7c(C8CCC(=O)NC8=O)nn(C)c7c6)CC5)CC4)ncc3Cl)cnc2n(C(C)C)c1=O (single isomer, unassigned) [Compound 201a]
+++ (30% ≤ Ymin < 50%) | < 10 nM | CNC(=O)COc1cc2cc(Nc3nc(N4CCC([C@](C)(O)C5CCN(c6ccc7c(C8CCC(=O)NC8=O)nn(C)c7c6)CC5)CC4)ncc3Cl)cnc2n(C(C)C)c1=O (single isomer, unassigned) [Compound 201b]
+++ (30% ≤ Ymin < 50%) | 10 to 100 nM | CNC(=O)COc1cc2cc(Nc3nc(N4CCC([C@](C)(O)C5CCN(c6cccc7c(C8CCC(=O)NC8=O)nn(C)c67)CC5)CC4)ncc3Cl)cnc2n(C(C)C)c1=O (stereo in doubt) [Compound 194b, rel-2-((6-((5-chloro-2-(4-((1R)-1-(1-(3-(2,6-dioxopiperidin-3-yl)-1-methyl-1H-indazol-7-yl)piperidin-4-yl)-1-hydroxyethyl)piperidin-1-yl)pyrimidin-4-yl)amino)-1-isopropyl-2-oxo-1,2-dihydro-1,8-naphthyridin-3-yl)oxy)-N-methylacetamide]
++++ (Ymin < 30%) | < 10 nM | CNC(=O)COc1cc2cc(Nc3nc(N4CCN(CC5CCN(c6cccc7c(C8CCC(=O)NC8=O)nn(C)c67)CC5)CC4)ncc3Cl)cnc2n(C)c1=O (stereo not shown) [Compound 101, 2-((6-((5-chloro-2-(4-((1-(3-(2,6-dioxopiperidin-3-yl)-1-methyl-1H-indazol-7-yl)piperidin-4-yl)methyl)piperazin-1-yl)pyrimidin-4-yl)amino)-1-methyl-2-oxo-1,2-dihydro-1,8-naphthyridin-3-yl)oxy)-N-methylacetamide]
++++ (Ymin < 30%) | 10 to 100 nM | CNC(=O)COc1cc2cc(Nc3nc(N4CCN(CC5CCN(c6cccc7c6C(=O)N(C6CCC(=O)NC6=O)C7=O)CC5)CC4)ncc3Cl)cnc2n(C)c1=O (stereo not shown) [Compound 102, 2-((6-((5-chloro-2-(4-((1-(2-(2,6-dioxopiperidin-3-yl)-1,3-dioxoisoindolin-4-yl)piperidin-4-yl)methyl)piperazin-1-yl)pyrimidin-4-yl)amino)-1-methyl-2-oxo-1,2-dihydro-1,8-naphthyridin-3-yl)oxy)-N-methylacetamide]
++++ (Ymin < 30%) | 10 to 100 nM | CNC(=O)COc1cc2cc(Nc3nc(N4CCN(CC5CCN(c6cccc7c(C8CCC(=O)NC8=O)nn(C)c67)CC5)CC4)ncc3Cl)cnc2n(C(C)C)c1=O (stereo not shown) [Compound 103, 2-((6-((5-chloro-2-(4-((1-(3-(2,6-dioxopiperidin-3-yl)-1-methyl-1H-indazol-7-yl)piperidin-4-yl)methyl)piperazin-1-yl)pyrimidin-4-yl)amino)-1-isopropyl-2-oxo-1,2-dihydro-1,8-naphthyridin-3-yl)oxy)-N-methylacetamide]
+++ (30% ≤ Ymin < 50%) | < 10 nM | CNC(=O)COc1cc2cc(Nc3nc(N4CCN(CC5CCN(c6ccc7c(C8CCC(=O)NC8=O)nn(C)c7c6)CC5)CC4)ncc3Cl)cnc2n(C(C)C)c1=O (stereo not shown) [Compound 104, 2-((6-((5-chloro-2-(4-((1-(3-(2,6-dioxopiperidin-3-yl)-1-methyl-1H-indazol-6-yl)piperidin-4-yl)methyl)piperazin-1-yl)pyrimidin-4-yl)amino)-1-isopropyl-2-oxo-1,2-dihydro-1,8-naphthyridin-3-yl)oxy)-N-methylacetamide]
++++ (Ymin < 30%) | 10 to 100 nM | CNC(=O)COc1cc2cc(Nc3nc(N4CCN(CC5CCN(c6cccc7c(C8CCC(=O)NC8=O)nn(C)c67)CC5)[C@@H](C)C4)ncc3Cl)cnc2n(C(C)C)c1=O (stereo partly drawn) [Compound 105a, 2-((6-((5-chloro-2-((3S)-4-((1-(3-(2,6-dioxopiperidin-3-yl)-1-methyl-1H-indazol-7-yl)piperidin-4-yl)methyl)-3-methylpiperazin-1-yl)pyrimidin-4-yl)amino)-1-isopropyl-2-oxo-1,2-dihydro-1,8-naphthyridin-3-yl)oxy)-N-methylacetamide]
++ (50% ≤ Ymin < 70%) | < 10 nM | CNC(=O)COc1cc2cc(Nc3nc(N4CCN(CC5CCN(c6ccc7c(C8CCC(=O)NC8=O)nn(C)c7c6)CC5)[C@@H](C)C4)ncc3Cl)cnc2n(C(C)C)c1=O (stereo partly drawn) [Compound 106a, 2-((6-((5-chloro-2-((3S)-4-((1-(3-(2,6-dioxopiperidin-3-yl)-1-methyl-1H-indazol-6-yl)piperidin-4-yl)methyl)-3-methylpiperazin-1-yl)pyrimidin-4-yl)amino)-1-isopropyl-2-oxo-1,2-dihydro-1,8-naphthyridin-3-yl)oxy)-N-methylacetamide]
